Seven compounds from the NIST ThermoML archive (doi:10.1016/j.jct.2007.03.007) can be followed below.

Each structure is given as a SMILES string. Numbers after ± are expanded uncertainties.

The conditions of data set [1]: Liquid; for mass density: 101.33 kPa.
Data set [2] is described as follows: refractive index (Na D-line) (dimensionless). The settings on record: 101.33 kPa, Liquid, Standard Abbe refractometry.
Setting [3] is: 298.15 K, Vibrating tube method.

For `Brc1ccccc1` [bromobenzene], the mass density in data set [1] (setting [3]) was determined as 1488.3 ± 2 kg/m3. Further, the “vapor or sublimation pressure” value in data set [1] (427.05 K) was 95.5 ± 4 kPa. Besides, the refractive index in data set [2] (298.15 K) is recorded as 1.5571 ± 0.0008.
On to `CC(=O)CC(C)=O` [2,4-pentanedione], for which, in data set [1] (setting [3]), the mass density was found to be 972 ± 2 kg/m3. Besides, in data set [1] (409.35 K), the “vapor or sublimation pressure” value was determined as 95.5 ± 4 kPa. The refractive index in data set [2] (293.15 K) came out at 1.4511 ± 0.0008.
On to `COC(C)(C)C` [2-methoxy-2-methylpropane], for which, in data set [1] (303.15 K, Vibrating tube method), the mass density was determined as 742 ± 2 kg/m3. Moreover, in data set [1] (326.45 K), the “vapor or sublimation pressure” value was 95.5 ± 4 kPa. Moreover, the refractive index in data set [2] (293.15 K) is 1.369 ± 0.0008.
For the compound `CCO[Si](OCC)(OCC)OCC` [tetraethoxysilane], the mass density in data set [1] (setting [3]) stood at 933.4 ± 2 kg/m3. Further, in data set [1] (439.55 K), the “vapor or sublimation pressure” value was determined as 95.5 ± 4 kPa. For the same compound, in data set [2] (298.15 K), the refractive index amounted to 1.3825 ± 0.0008.
Turning to `CC#N` [acetonitrile], in data set [1] (298.15 K), the mass density was determined as 776.5 ± 2 kg/m3. Moreover, the “vapor or sublimation pressure” value in data set [1] (352.15 K) and in data set [1] (352.55 K) was 95.5 ± 4 kPa throughout. In addition, the refractive index in data set [2] (298.15 K) was found to be 1.3416 ± 0.0008.
For the compound `CC(C)O` [propan-2-ol], the mass density in data set [1] (setting [3]) turned out to be 781.3 ± 2 kg/m3. Also, in data set [1] (354.05 K), the “vapor or sublimation pressure” value was 95.5 ± 4 kPa. In addition, the refractive index in data set [2] (298.15 K) turned out to be 1.3751 ± 0.0008.
For `COc1ccccc1` [anisole], the mass density in data set [1] (setting [3]) amounted to 989.3 ± 2 kg/m3. For the same compound, the “vapor or sublimation pressure” value in data set [1] (424.65 K) is listed as 95.5 ± 4 kPa. Besides, in data set [2] (298.15 K), the refractive index is recorded as 1.5142 ± 0.0008.

Broadly, the mass density is mass per unit of volume. The term vapor or sublimation pressure denotes the equilibrium pressure above the liquid or solid. A word on the refractive index: it is a measure of how strongly the sample bends light.
